According to the NIST ThermoML archive (doi:10.1016/j.jct.2007.05.004):

Columns and labels:
[1] = 101 kPa, Liquid
[2] = xn = mol fraction of the nth substance listed; conditions: 101 kPa, Liquid

CCO [ethanol]
[1]
Conditions | mass density [kg/m3] | viscosity [mPa·s]
293.15 K | 789.75 | 1.187
298.15 K | 785.46 | 1.082
303.15 K | 781.15 | 0.987

CCO [ethanol] + CCOC(C)=O
[2], x1 = 1
Conditions | mass density [kg/m3] | viscosity [mPa·s]
293.15 K | 789.75 | 1.187
298.15 K | 785.46 | 1.082
303.15 K | 781.15 | 0.987

CCO [ethanol] + COC(C)=O
[2], x1 = 1
Conditions | mass density [kg/m3] | viscosity [mPa·s]
293.15 K | 789.75 | 1.187
298.15 K | 785.46 | 1.082
303.15 K | 781.15 | 0.987

CCO [ethanol] + O
[2]
Conditions | mass density, 293.15 K [kg/m3] | mass density, 298.15 K [kg/m3] | mass density, 303.15 K [kg/m3] | viscosity, 293.15 K [mPa·s] | viscosity, 298.15 K [mPa·s] | viscosity, 303.15 K [mPa·s]
x2 = 0 | 789.75 | 785.46 | 781.15 | 1.187 | 1.082 | 0.987
x2 = 0.0501 | 795.99 | 791.68 | 787.35 | 1.277 | 1.153 | 1.046
x2 = 0.0986 | 802.09 | 797.77 | 793.41 | 1.371 | 1.232 | 1.111
x2 = 0.1961 | 814.88 | 810.54 | 806.14 | 1.549 | 1.38 | 1.237
x2 = 0.2961 | 829.05 | 824.7 | 820.29 | 1.735 | 1.531 | 1.357
x2 = 0.3991 | 845.25 | 840.94 | 836.55 | 1.975 | 1.659 | 1.515
x2 = 0.4971 | 862.82 | – | – | 2.225 | – | –
x2 = 0.5989 | 884.07 | 879.89 | 875.63 | 2.479 | 2.115 | 1.821
x2 = 0.6991 | 908.69 | 904.65 | 900.55 | 2.705 | 2.275 | 1.941
x2 = 0.8001 | 937.33 | 933.65 | 929.9 | 2.7 | 2.3 | 1.937
x2 = 0.8996 | 965.71 | 963.24 | 960.61 | 2.223 | 1.86 | 1.58
x2 = 0.9499 | 979.28 | 977.72 | 975.93 | 1.63 | 1.388 | 1.207

CCOC(C)=O [ethyl acetate] + CCO
[2]
Conditions | mass density, 293.15 K [kg/m3] | mass density, 298.15 K [kg/m3] | mass density, 303.15 K [kg/m3] | viscosity, 293.15 K [mPa·s] | viscosity, 298.15 K [mPa·s] | viscosity, 303.15 K [mPa·s]
x2 = 0 | 900.52 | 894.43 | 888.3 | 0.452 | 0.426 | 0.403
x2 = 0.0491 | 896.91 | 890.86 | 884.76 | 0.45 | 0.425 | 0.402
x2 = 0.099 | 893.14 | 887.11 | 881.03 | 0.452 | 0.429 | 0.406
x2 = 0.1958 | 885.48 | 879.55 | 873.57 | 0.463 | 0.435 | 0.412
x2 = 0.2961 | 877.07 | 871.22 | 865.34 | 0.476 | 0.448 | 0.426
x2 = 0.3947 | 868.09 | 862.38 | 856.63 | 0.497 | 0.467 | 0.439
x2 = 0.4948 | 858.16 | 852.62 | 847.03 | 0.542 | 0.502 | 0.467
x2 = 0.5995 | 846.81 | 841.47 | 836.07 | 0.581 | 0.543 | 0.508
x2 = 0.7004 | 834.71 | 829.57 | 824.39 | 0.66 | 0.614 | 0.575
x2 = 0.8004 | 821.45 | 816.55 | 811.61 | 0.758 | 0.701 | 0.65
x2 = 0.9003 | 806.45 | 801.82 | 797.15 | 0.919 | 0.843 | 0.777
x2 = 0.9505 | 798.36 | 793.91 | 789.42 | 1.048 | 0.958 | 0.869

CCOC(C)=O [ethyl acetate] + CO
[2]
Conditions | mass density, 293.15 K [kg/m3] | mass density, 298.15 K [kg/m3] | mass density, 303.15 K [kg/m3] | viscosity, 293.15 K [mPa·s] | viscosity, 298.15 K [mPa·s] | viscosity, 303.15 K [mPa·s]
x2 = 0 | 900.52 | 894.43 | 888.3 | 0.452 | 0.426 | 0.403
x2 = 0.0474 | 898.51 | 892.43 | 886.3 | 0.447 | 0.422 | 0.4
x2 = 0.097 | 896.18 | 890.12 | 884.01 | 0.443 | 0.418 | 0.396
x2 = 0.1956 | 891.18 | 885.16 | 879.09 | 0.442 | 0.417 | 0.396
x2 = 0.2999 | 884.93 | 878.99 | 872.98 | 0.442 | 0.419 | 0.398
x2 = 0.3963 | 878.26 | 872.38 | 866.46 | 0.447 | 0.421 | 0.398
x2 = 0.4962 | 870.14 | 864.36 | 858.55 | 0.453 | 0.427 | 0.403
x2 = 0.5963 | 860.45 | 854.82 | 849.15 | 0.463 | 0.435 | 0.41
x2 = 0.6998 | 848.26 | 842.81 | 837.3 | 0.481 | 0.451 | 0.425
x2 = 0.7992 | 833.88 | 828.62 | 823.31 | 0.504 | 0.472 | 0.443
x2 = 0.9005 | 815.52 | 810.5 | 805.45 | 0.536 | 0.501 | 0.469

CO [methanol] + CCOC(C)=O
[2], x1 = 1
Conditions | mass density [kg/m3] | viscosity [mPa·s]
293.15 K | 791.9 | 0.585
298.15 K | 787.2 | 0.545
303.15 K | 782.48 | 0.508

CO [methanol] + COC(C)=O
[2], x1 = 1
Conditions | mass density [kg/m3] | viscosity [mPa·s]
293.15 K | 791.9 | 0.585
298.15 K | 787.2 | 0.545
303.15 K | 782.48 | 0.508

CO [methanol] + O
[2]
Conditions | mass density, 293.15 K [kg/m3] | mass density, 298.15 K [kg/m3] | mass density, 303.15 K [kg/m3] | viscosity, 293.15 K [mPa·s] | viscosity, 298.15 K [mPa·s] | viscosity, 303.15 K [mPa·s]
x2 = 0 | 791.9 | 787.2 | 782.48 | 0.585 | 0.545 | 0.508
x2 = 0.049 | 800.06 | 795.47 | 790.84 | 0.655 | 0.607 | 0.563
x2 = 0.0993 | 808.62 | 804.11 | 799.56 | 0.735 | 0.677 | 0.627
x2 = 0.1973 | 826.11 | 821.73 | 817.31 | 0.9 | 0.821 | 0.751
x2 = 0.2983 | 845.03 | 840.79 | 836.5 | 1.086 | 0.987 | 0.889
x2 = 0.3985 | 864.67 | 860.59 | 856.45 | 1.287 | 1.15 | 1.032
x2 = 0.5003 | 885.57 | 881.69 | 877.32 | 1.481 | 1.309 | 1.164
x2 = 0.5994 | 906.58 | 902.96 | 899.26 | 1.673 | 1.463 | 1.289
x2 = 0.6997 | 928.45 | 925.21 | 921.89 | 1.793 | 1.554 | 1.342
x2 = 0.7986 | 949.8 | 947.17 | 944.42 | 1.789 | 1.542 | 1.342
x2 = 0.8999 | 971.59 | 969.84 | 967.9 | 1.522 | 1.317 | 1.147
x2 = 0.9512 | 983.86 | 982.53 | 980.97 | 1.274 | 1.121 | 0.996

COC(C)=O [methyl ethanoate] + CCO
[2]
Conditions | mass density, 293.15 K [kg/m3] | mass density, 298.15 K [kg/m3] | mass density, 303.15 K [kg/m3] | viscosity, 293.15 K [mPa·s] | viscosity, 298.15 K [mPa·s] | viscosity, 303.15 K [mPa·s]
x2 = 0 | 933.56 | 926.98 | 920.34 | 0.386 | 0.367 | 0.348
x2 = 0.0493 | 927.83 | 921.31 | 914.73 | 0.383 | 0.363 | 0.345
x2 = 0.0987 | 922 | 915.54 | 909.02 | 0.389 | 0.365 | 0.347
x2 = 0.1998 | 909.85 | 903.54 | 897.15 | 0.398 | 0.377 | 0.359
x2 = 0.3006 | 897.16 | 891 | 884.79 | 0.419 | 0.395 | 0.374
x2 = 0.3973 | 884.52 | 878.56 | 872.54 | 0.444 | 0.418 | 0.394
x2 = 0.4863 | 872.35 | 866.59 | 860.77 | 0.477 | 0.449 | 0.422
x2 = 0.6031 | 855.48 | 849.99 | 844.45 | 0.54 | 0.505 | 0.473
x2 = 0.6972 | 841.15 | 835.91 | 830.62 | 0.615 | 0.572 | 0.537
x2 = 0.7986 | 824.84 | 819.89 | 814.9 | 0.735 | 0.684 | 0.64
x2 = 0.9009 | 807.47 | 802.85 | 798.18 | 0.903 | 0.838 | 0.768
x2 = 0.951 | 798.76 | 794.3 | 789.81 | 1.032 | 0.945 | 0.868

COC(C)=O [methyl ethanoate] + CO
[2]
Conditions | mass density, 293.15 K [kg/m3] | mass density, 298.15 K [kg/m3] | mass density, 303.15 K [kg/m3] | viscosity, 293.15 K [mPa·s] | viscosity, 298.15 K [mPa·s] | viscosity, 303.15 K [mPa·s]
x2 = 0 | 933.56 | 926.98 | 920.34 | 0.386 | 0.367 | 0.348
x2 = 0.0471 | 930.26 | 923.71 | 917.1 | 0.378 | 0.359 | 0.341
x2 = 0.0982 | 926.48 | 919.95 | 913.37 | 0.378 | 0.361 | 0.342
x2 = 0.1983 | 918.39 | 911.96 | 905.46 | 0.379 | 0.366 | 0.348
x2 = 0.2912 | 909.97 | 903.65 | 897.26 | 0.382 | 0.364 | 0.347
x2 = 0.4015 | 898.52 | 892.35 | 886.12 | 0.394 | 0.37 | 0.351
x2 = 0.5006 | 886.79 | 880.78 | 874.71 | 0.404 | 0.382 | 0.36
x2 = 0.5878 | 875.07 | 869.25 | 863.35 | 0.416 | 0.392 | 0.371
x2 = 0.7017 | 857.33 | 851.73 | 846.09 | 0.442 | 0.416 | 0.393
x2 = 0.8015 | 838.91 | 833.57 | 828.19 | 0.472 | 0.443 | 0.417
x2 = 0.9008 | 817.51 | 812.45 | 807.37 | 0.521 | 0.486 | 0.455
x2 = 0.9504 | 805.16 | 800.29 | 795.38 | 0.551 | 0.516 | 0.483

O [water] + CCO
[2], x1 = 1
Conditions | viscosity [mPa·s]
293.15 K | 1.002
298.15 K | 0.89
303.15 K | 0.797

O [water] + CO
[2], x1 = 1
Conditions | viscosity [mPa·s]
293.15 K | 1.003
298.15 K | 0.89
303.15 K | 0.797
